Here are results for two compounds from paper PMC12215270 (Nature Communications, 2025).

A word on the IC50: it is the concentration needed to halve the response being measured. Low readings indicate greater potency, high ones weaker potency.

Each structure is given as a SMILES string.

Test [1] has as its target T1, TgCmt (guanine-N7 methyltransferase) (Toxoplasma gondii, UniProt S8F527).
T1 sequence (S8F527 716-1283): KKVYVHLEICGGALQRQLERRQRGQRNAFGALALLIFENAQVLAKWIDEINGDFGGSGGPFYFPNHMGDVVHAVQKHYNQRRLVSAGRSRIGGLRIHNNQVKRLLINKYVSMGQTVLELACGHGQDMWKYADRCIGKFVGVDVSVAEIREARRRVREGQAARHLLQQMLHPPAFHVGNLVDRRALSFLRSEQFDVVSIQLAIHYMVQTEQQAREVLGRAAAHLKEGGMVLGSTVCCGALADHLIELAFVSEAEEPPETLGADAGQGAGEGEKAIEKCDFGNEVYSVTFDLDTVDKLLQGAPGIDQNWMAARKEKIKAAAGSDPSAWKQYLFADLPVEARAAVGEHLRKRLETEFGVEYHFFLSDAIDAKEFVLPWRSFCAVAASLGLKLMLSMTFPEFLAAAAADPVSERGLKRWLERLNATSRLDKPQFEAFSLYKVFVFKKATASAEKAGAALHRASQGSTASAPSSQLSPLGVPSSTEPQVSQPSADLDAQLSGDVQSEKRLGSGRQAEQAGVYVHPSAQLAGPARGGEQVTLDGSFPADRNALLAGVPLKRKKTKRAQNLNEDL
Nature of the test: in vitro RNA cap methylation, anti-m7G immuno-dot blot. It counts as biochemical.

Test [2] has as its target T2, TgCet (RNA triphosphatase) (Toxoplasma gondii, UniProt S8F0G9).
T2 sequence (S8F0G9 1-920): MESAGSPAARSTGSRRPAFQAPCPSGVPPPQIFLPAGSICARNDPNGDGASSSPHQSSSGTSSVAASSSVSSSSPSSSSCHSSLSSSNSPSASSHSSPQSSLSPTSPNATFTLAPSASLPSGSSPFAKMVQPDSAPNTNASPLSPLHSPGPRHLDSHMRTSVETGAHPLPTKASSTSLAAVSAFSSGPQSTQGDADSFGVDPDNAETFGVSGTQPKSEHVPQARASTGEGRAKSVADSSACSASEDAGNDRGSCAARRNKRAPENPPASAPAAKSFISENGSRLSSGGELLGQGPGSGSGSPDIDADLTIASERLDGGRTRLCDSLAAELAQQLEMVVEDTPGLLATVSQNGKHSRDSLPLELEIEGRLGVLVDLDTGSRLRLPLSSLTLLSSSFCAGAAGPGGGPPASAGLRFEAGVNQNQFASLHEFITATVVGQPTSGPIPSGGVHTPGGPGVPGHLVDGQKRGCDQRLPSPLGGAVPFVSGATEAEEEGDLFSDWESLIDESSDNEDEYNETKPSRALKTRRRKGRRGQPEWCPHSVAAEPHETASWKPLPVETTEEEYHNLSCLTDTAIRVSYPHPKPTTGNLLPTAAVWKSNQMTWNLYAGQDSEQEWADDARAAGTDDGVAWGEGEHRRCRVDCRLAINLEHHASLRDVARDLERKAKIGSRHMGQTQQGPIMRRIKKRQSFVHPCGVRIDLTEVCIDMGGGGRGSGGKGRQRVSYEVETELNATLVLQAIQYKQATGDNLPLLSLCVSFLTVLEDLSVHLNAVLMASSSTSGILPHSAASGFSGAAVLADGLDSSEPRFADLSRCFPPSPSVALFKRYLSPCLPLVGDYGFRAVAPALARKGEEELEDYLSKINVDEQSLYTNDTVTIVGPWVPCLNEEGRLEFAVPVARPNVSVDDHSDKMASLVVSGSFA
Nature of the test: ATPase assay. It counts as biochemical.

Consider `Nc1ncnc2c1ncn2[C@@H]1O[C@H](C[C@@H](N)CC[C@H](N)C(=O)O)[C@@H](O)[C@H]1O` [sinefungin], for which the “in vitro RNA cap methylation, anti-m7G immuno-dot blot” value in test [1] was “sinefungin inhibits m^7GpppN32 synthesis in a concentration-dependent manner”. As to `O=c1c(O)c(-c2cc(O)c(O)c(O)c2)oc2cc(O)cc(O)c12` [Myricetin], the concentration for half-maximal inhibition (IC50) in test [2] was found to be 400 nM.
